Test results: US20140088144A1, “INHIBITING MICROBIAL INFECTIONS” (THE UNIVERSITY OF KANSAS, priority 2012, published 2014)

How the values were obtained:
virB = assay: Shigella gene expression qRT-PCR, virB; type: cell-based, S. flexneri; conditions: for Average ΔΔCt / Ct / RQ (2^−ΔΔCt) / ΔΔCt^1 (normalized to gapA) / ΔΔCt^2 (normalized to rrsA): virB, example data
Protocol: (§1) Real-time quantitative reverse transcription PCR (qRT-PCR) was performed to test the effects of SE-1 on the expression of the VirF regulated genes virB, icsA, icsB and ipaB. The gapA and rrsA transcripts were used as internal controls. These are constitutively expressed Shigella genes commonly used to normalize mRNA levels. S. flexneri strain SME4331, which carries a null mutation in ipgD (ipgD), was grown at 30° C. overnight in TSB with ampicillin, diluted into the same medium to an OD600 of ˜0.1, and 1 ml aliquots further grown at 30° C. (DMSO only) or at 37° C. (SE-1 at 20 or 40 μM, or DMSO only, all 0.3% DMSO). Cells were grown to an OD600 of 1.0 (˜2.5 h) and RNA was isolated using an RNeasy MiniElute Cleanup Kit (Qiagen, Germantown, Md.), with DNA contamination eliminated using a Turbo DNase Kit (Ambion, Austin, Tex.). Complementary DNA (cDNA) was synthesized by random priming using a cDNA Reverse Transcription Kit (Applied Biosystems, Foster City, Calif.). Primers were tested for PCR specificity using genomic DNA template to ensure a single amplicon of the expected size for each primer pair, and validated using 5-fold dilutions of cDNA (2000 to 0.0256 ng) to ensure a linear plot of cycle threshold (Ct) versus cDNA concentration. Validated primer sets were used to test mRNA profiles in reactions that contained 10 ng of cDNA, 10 μl of SYBR green master mix (Applied Biosystems), specific primers (0.5 μM each) and water to a final volume of 20 μl, using a Step One Plus Real-Time PCR System (Applied Biosystems). The data was analyzed using the 2^−ΔΔCt method, and also by Applied Biosystems real-time analysis software. […] In brief, ΔΔCt values [ΔΔCt=(Ct,Target−Ct,Internal Control)SE-1−(Ct,Target−Ct,Internal Control)no SE-1] were separately obtained for each sample relative to two internal controls, gapA and rrsA. The ΔΔCt values relative to the two internal controls for each sample were averaged and then used to calculate the relative expression levels (2^−ΔΔCt). As a control, we also normalized each internal control to the other internal control. Control reactions used templates generated without reverse transcriptase to ensure low genomic DNA contamination. To ensure that products were not likely to be due to primer dimer artifacts, additional control samples were performed in which reaction mixtures contained primers alone (no template).

gapA = assay: Shigella gene expression qRT-PCR, internal control gapA; type: cell-based, S. flexneri; conditions: for Average ΔΔCt / Ct / RQ (2^−ΔΔCt) / ΔΔCt^2 (normalized to rrsA): gapA, example data
Protocol: as §1

L-929 cells = assay: AlamarBlue metabolic activity / viability assay; type: cell-based, mouse
Protocol: AlamarBlue® assays were performed as a control to test whether SE-1 had any impact on the metabolic activity of the host cells, as follows: L-929 cells were seeded into 96-well plates and grown overnight to ˜90% confluency. SE-1 was serially diluted in RPMI supplemented with 10 μg/ml gentamycin and 5% FBS, added to the wells, and incubated at 37° C. for 3 h. Cells were washed with 200 μl Hank's buffered salt solution (Mediatech) and incubated with 200 μl RPMI (without phenol red) containing 10% AlamarBlue® (also known as Resazurin, Invitrogen, Grand Island, N.Y.). Following 8 h incubation at 37° C., the absorbance was measured at 570 nm and 600 nm using a PowerWave XS plate reader, and the metabolic activity of the cells (as a percentage of untreated controls) was calculated using the following formula provided by the manufacturer: (117,216×A570−80,586×A600)/(117,216×A′570−80,586×A′600)×100, where A is the absorbance of test wells, and A′ is the absorbance of positive control wells (mock-infection).

Rns = Rns (Escherichia coli, UniProt P16114); assay: % Inhibition at 82.5 μM, Rns; type: cell-based, Enterotoxigenic E. coli; conditions: 82.5 μM
Rns, sequence (P16114 whole entry): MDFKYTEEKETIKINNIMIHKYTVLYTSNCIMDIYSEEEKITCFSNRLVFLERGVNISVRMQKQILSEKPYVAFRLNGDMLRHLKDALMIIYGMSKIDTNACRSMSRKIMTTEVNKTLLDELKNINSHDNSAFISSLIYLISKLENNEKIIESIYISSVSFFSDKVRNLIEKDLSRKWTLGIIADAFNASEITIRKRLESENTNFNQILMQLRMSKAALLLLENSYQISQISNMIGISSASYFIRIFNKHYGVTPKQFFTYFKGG

## CCCCN1C=C(c2ccc3ccccc3n2)C(C[N+](=O)[O-])c2ccccc21 (centres unmarked) [Compound 1, 1-butyl-4-(nitromethyl)-3-quinolin-2-yl-4H-quinoline]
virB; 40 μM SE-1, P<0.05
  maximal inhibition of virB expression: more than two fold
virB; SE-1 20 μM
  Average ΔΔCt: 1.13
  Ct: 23.26
  RQ (2^−ΔΔCt): 0.46
  ΔΔCt^1 (normalized to gapA): 0.63
  ΔΔCt^2 (normalized to rrsA): 1.63
virB; SE-1 40 μM
  Average ΔΔCt: 1.47
  Ct: 23.18
  RQ (2^−ΔΔCt): 0.36
  ΔΔCt^1 (normalized to gapA): 1.12
  ΔΔCt^2 (normalized to rrsA): 1.81
gapA; 40 μM SE-1, normalized to rrsA
  expression of control gene gapA: no decrease
gapA; SE-1 20 μM
  Average ΔΔCt: 1
  Ct: 27.33
  RQ (2^−ΔΔCt): 0.5
  ΔΔCt^2 (normalized to rrsA): 1
gapA; SE-1 40 μM
  Average ΔΔCt: −0.69
  Ct: 26.76
  RQ (2^−ΔΔCt): 0.62
  ΔΔCt^2 (normalized to rrsA): −0.69
L-929 cells; 40 μM SE-1
  host cell viability: no effect
L-929 cells; 0.2 and 0.4 μM SE-1
  viability of L-929 cells: did not detectably decrease the viability
Rns
  % Inhibition at 82.5 μM Rns: 90%
